Assay results published in US11324825B2, “Synthetic retinoids (in cell modulation)” (University of Durham, priority 2016, dated 2022).

What was measured:
[1] = test system: HaCaT cells; experiment: Cell death on Zeiss Live Cell Observer after UV light; assay type: cell-based
Method: (§1) One day prior to imaging, HaCaT or J2 cells (20,000 approx.) were seeded into each well of a 6 well or 24 well plastic plate. Cells were allowed to incubate overnight in serum containing media. One to four hours before imaging the normal media was replaced with compound containing media, 1 mL per well. The cells were imaged in a 37° C. heated chamber and supplied with 5% CO2. Zeiss Live Cell Observer microscope: OSRAM 1×HBO 103 W/2 100 Watt Mercury Bulb, DAPI Excitation filter=335-385 nm, DAPI Emission filter=420-470 nm. Note: Cells were imaged in DMEM media which contains phenol red.

[2] = test system: HaCaT cells; experiment: Cell death on Zeiss 880 confocal, 405 nm laser light; assay type: cell-based, human; settings: 10 μM; for membrane blebbing on repeated exposures to 405 nm laser: up to 47 exposures
Method: One day prior to imaging, HaCaT cells (4000 approx.) were seeded into each well of an 8 well glass slide. Cells were allowed to incubate overnight in serum containing media. One hour before imaging the normal media was replaced with compound containing media, 1 mL per well. The cells were imaged in a 37° C. heated chamber using the Zeiss LSM 880 with Airyscan confocal laser scanning microscope. Note: Cells were imaged in DMEM media which contains phenol red.
Images of 10 μM compound treated cells were taken every twenty minutes and at each time point a treatment of 405 nm light at 50% laser strength was applied.

[3] = test system: HaCaT cells; experiment: ROS staining (Superoxide Detection Reagent, CellRox); assay type: cell-based, human; settings: for superoxide stain fluorescence after UV exposure: UV treatment, rhodamine filter, 60-260 seconds after UV
Method: One day prior to imaging, HaCaT cells (20,000 approx) were seeded into each well of a 24 well plastic plate. Cells were allowed to incubate overnight in serum containing media. Three hours prior to imaging, the media in each well was replaced with fresh serum containing media which included a 1:500 dilution of Superoxide Detection Reagent, CellRox. […] The cells were incubated with the ROS stain at 37° C. for one hour. An hour and a half before imaging, the media in the negative control well was replaced with N-acetyl-L-cysteine diluted in serum containing media (1 mL, 10 mM). One hour before imaging the media in all but one of the other wells was replaced with compound containing media, 1 mL per well. Thirty minutes prior to imaging, the media in the positive control well was replaced with pyocyanine diluted in serum containing media (1 mL, 500 μM). Pyocyanine induces ROS within 20-30 minutes. The cells were imaged in a heated chamber and supplied with 5% CO2. The cells were imaged in a 37° C. heated chamber using the Zeiss LSM 880 with Airyscan confocal laser scanning microscope. Cells were irradiated with 405 nm laser to activate compounds and ROS dye was excited with 633 nm laser Note: Cells were imaged in DMEM media which contains phenol red.
In order to gain more insight into the mode of action leading to cell death, we examined the photo-initiated ROS production using the redox reactive dye, CellRox, which fluoresces in response to oxidation by reactive oxygen species.

[4] = test system: J2 cells, a mouse fibroblast cell line; experiment: Cell death on Zeiss Live Cell Observer after UV light, J2 cells; assay type: cell-based
Method: as §1
Referring to FIG. 6: Cell death observations were consistent across different cell lines. […] A 10× objective lens at Phase 0 was used.

[5] = test system: HaCaT cells; experiment: Dose response of cell death after 10 s UV (time lapse imaging); settings: Homo sapiens, light or radiation study, 10 seconds of UV (DAPI filter, 20× objective), 24 hours after initial irradiation, read-out: EC50 based on average viable fraction of the cellular population
Method: The speed of death was tested at a number of concentrations in order to determine an estimate for the EC50 (half maximal effective concentration) value. Morphological changes were recorded using time lapse imaging at 5 minute intervals. The time taken between 10 s of UV light treatment and the first sign of damage to the cell membranes was recorded. Each cell in the field of view was treated as an individual data point, before taking an average of the time for each concentration.
Referring to FIG. 12: The dose-dependent response of HaCaT cells treated with DC324 and DC473 and 10 seconds of UV. UV exposure was administered through the DAPI filter and a 20× objective lens, phase 0.

[6] = Absorbance and emission spectra; assay type: physicochemical; settings: in chloroform
Method: FIG. 18 illustrates the combined normalised absorbance spectra of DC324, DC473 and DC474 in CHCl3 (10 μM);
FIG. 19 illustrates the combined normalised emission spectra of DC324, DC473 and DC474 in CHCl3 (100 nM) with excitation at their respective maximal absorption wavelengths;

Row | SMILES | membrane blebbing and cell death following exposure to UV light (initial screening) ([1]; UV light) | membrane blebbing on repeated exposures to 405 nm laser ([2]; 405 nm laser at 50% strength) | superoxide stain fluorescence after UV exposure [3] | EC50 [5] [nM] | Absorbance wavelength max [6] [max nm] | Absorbance wavelength range [6] | other results
1 | CC1=C(/C=C/C(C)=C/C=C/C(C)=C/C(=O)O)C(C)(C)CCC1 [ATRA, All Trans-Retinoic Acid, reference compound] | no membrane blebbing was observed | No membrane blebbing was observed | produced an increased level of fluorescence post exposure to UV | – | – | – | –
2 | CC(C)N1CCC(C)(C)c2cc(C#Cc3ccc(/C=C/C(=O)O)cc3)ccc21 [DC324, (2E)-3-(4-2-[4,4-Dimethyl-1-(propan-2-yl)-1,2,3,4-tetrahydroquinolin-6-yl]ethynylphenyl)prop-2-enoic Acid] | induced membrane blebbing and cell death | Membrane blebbing was induced | indicates superoxide production | 200 | 400 | 275-475 range nm | cells from the same well away from the site of UV exposure ([1]; 10 μM, no UV exposure): healthy cells; time to necrosis after UV treatment ([1]; 10 μM, single 10 s treatment with UV light, 10× objective lens, Phase 0): within two hours; speed of cell death induction compared with other compounds ([1]; UV light): most rapid inducer of cell death; UV untreated cells in the compound, same well as treated area ([4]; no UV): appear healthy after 26 hours; membrane blebbing after a single UV treatment ([4]; single UV treatment, 10× objective lens, Phase 0): displayed membrane blebbing within two hours; number of exposures until first bleb appeared ([2]; 405 nm laser at 50% strength): 21 exposures; type of cell death induced by 405 nm light ([2]; 405 nm laser at 50% strength): more characteristic of apoptosis than the cell death caused by UV light; cell death under 405 nm laser light versus DMSO control ([2]; 405 nm light at 50% laser strength every twenty minutes): significantly different to the DMSO control; CellRox (ROS-stimulated) relative fluorescence after irradiation ([3]; 405 nm light, before vs after irradiation): steady increase; Emission wavelength max ([6]; excitation at 400 nm): 560 max nm; Emission wavelength range ([6]; excitation at 400 nm): 450-700 range nm
3 | C#CCN1CCC(C)(C)c2cc(C#Cc3ccc(/C=C/C(=O)OC)cc3)ccc21 [DC473] | induced membrane blebbing and cell death | – | – | 180 | 380 | 275-450 range nm | Emission wavelength max ([6]; excitation at 380 nm): 520 max nm; Emission wavelength range ([6]; excitation at 380 nm): 440-680 range nm
4 | C#CCN1CCC(C)(C)c2cc(C#Cc3ccc(/C=C/C(=O)O)cc3)ccc21 [DC474, (2E)-3-(4-{2-[4,4-Dimethyl-1-(prop-2-yn-1-yl)-1,2,3,4-tetrahydroquinolin-6-yl]ethynyl}phenyl)prop-2-enoic Acid] | – | – | – | – | 380 | 275-450 range nm | Emission wavelength max ([6]; excitation at 300 nm): 540 max nm; Emission wavelength range ([6]; excitation at 300 nm): 450-700 range nm; melting point: 193 to 195 °C (dec.)
5 | CC1(C)CCC(C)(C)c2cc(C#Cc3ccc(C(=O)O)cc3)ccc21 [EC23, reference compound] | no membrane blebbing was observed | – | – | – | – | – | –
